Key:
[1] = tested on: NCIH727; test: CellTiter-Glo Reagent cancer cell line proliferation assay, NCIH727; format: cell-based, human; conditions: NCIH727, KRAS(G12V) heterozygous
Source text: (§1) The following cancer cell lines were employed: • AsPC-1 human pancreatic adenocarcinoma, homozygous KRAS(G12D), (ATCC, #CRL-1682); A-427 human lung carcinoma, heterozygous KRAS(G12D), (ATCC, #HTB-53); AGS human gastric adenocarcinoma, heterozygous KRAS(G12D), (ATCC, #CRL-1739); GP2D human colon adenocarcinoma, heterozygous KRAS(G12D), (Sigma Aldrich, 95090714); SW1990 human pancreatic adenocarcinoma, homozygous KRAS(G12D), (ATCC, #CRL2172); LU65A human lung giant cell carcinoma, heterozygous KRAS(G12C), (JCRB Cell Bank, #JCRB0054); NCIH727 human lung carcinoid, heterozygous KRAS(G12V), (ATCC, #CRL-5815); MKN1 human gastric adenosquamous carcinoma KRAS (wt), (JCRB Cell Bank, #JCRB0252). Cell lines were cultured according to ATCC, JCRB and Sigma Aldrich recommendations.
(§2) Cells were plated in 96-well tissue culture plates at 4,000 cells/well and incubated at 37° C./5% CO2 for 24 hr in 100 μl of media. 3-fold serial dilutions of each test compound were prepared ranging from 20 μM to 1.02 nM. Cells were then treated with test compounds at various concentrations with a final concentration of 0.5% DMSO/well, and then incubated at 37° C./5% CO2 for 24 hr. 100 μl of CellTiter-Glo® Reagent (Promega Corporation, Madison, WI) was added to each well and processed according manufacturer's protocol. Results were analyzed and IC50-values were calculated in GraphPad 7 software.

[2] = tested on: AGS; test: CellTiter-Glo Reagent cancer cell line proliferation assay, AGS; format: cell-based, human; conditions: KRAS(G12D) heterozygous
Source text: as §1, §2

[3] = tested on: LU65A; test: CellTiter-Glo Reagent cancer cell line proliferation assay, LU65A; format: cell-based, human; conditions: KRAS(G12C) heterozygous
Source text: as §1, §2

[4] = tested on: GP2D; test: CellTiter-Glo Reagent cancer cell line proliferation assay, GP2D; format: cell-based; conditions: Homo sapiens, KRAS(G12D) heterozygous, 24 hr
Source text: as §1, §2

| IC50 ([1]; Homo sapiens, NCI-H727, 24 h) | IC50 ([2]; Homo sapiens, 24 h) | IC50 ([3]; Homo sapiens, 24 h) | IC50 ([1]; 24 hr) | IC50 ([2]; 24 hr) | IC50 ([3]; 24 hr) | IC50 [4] | SMILES |
| --- | --- | --- | --- | --- | --- | --- | --- |
| < 100 nM | < 100 nM | < 100 nM |  |  |  |  | C#Cc1c(F)ccc2cc(O)cc(-c3nc(OC)c4c(N5CC6CCC(C5)N6C(=O)CC(C)C#N)nc(OCC5(CNC6CCC(=O)NC6=O)CC5)nc4c3F)c12 (stereo not shown) [Compound 145] |
| < 100 nM | < 100 nM | < 100 nM |  |  |  |  | N#CCCC(=O)N1C2CCC1CN(c1nc(OCC3(CN4CCN(CC5CCN(c6ccc7c(c6)CN(C6CCC(=O)NC6=O)C7=O)CC5)CC4)CC3)nc3c(F)c(-c4cc(N)cc(Cl)c4C(F)(F)F)c(Cl)cc13)C2 (stereo not shown) [Compound 153] |
| < 100 nM | < 100 nM | < 100 nM |  |  |  |  | C#Cc1c(F)ccc2cc(O)cc(-c3nc(OC)c4c(N5CC6CCC(C5)N6C(=O)CCC#N)nc(OCC5(CN6CCN(CC7CCN(c8ccc9c(N%10CCC(=O)NC%10=O)nn(C)c9c8)CC7)CC6)CC5)nc4c3F)c12 [Compound 159] |
| < 100 nM | < 100 nM | < 100 nM |  |  |  |  | C#Cc1c(F)ccc2cc(O)cc(-c3nc(OC)c4c(N5CCCO[C@@H]6C[C@@H]65)nc(OCC5(CN6CCN(CC7CCN(c8ccc9c(c8)CN([C@H]8CCC(=O)NC8=O)C9=O)CC7)CC6)CC5)nc4c3F)c12 [Compound 165] |
| < 100 nM | < 100 nM | < 100 nM |  |  |  |  | C#Cc1c(F)ccc2cc(O)cc(-c3nc(OC)c4c(N5CCCO[C@H]6C[C@H]65)nc(OCC5(CN6CCN(CC7CCN(c8ccc9c(c8)CN(C8CCC(=O)NC8=O)C9=O)CC7)CC6)CC5)nc4c3F)c12 (stereo partly shown) [Compound 164] |
| > 1000 nM | > 1000 nM | > 1000 nM |  |  |  |  | C#Cc1c(F)ccc2cc(O)cc(-c3ncc4c(N5CCCOC6CC65)nc(OCC5(CN6CCN(CC7CCN(c8ccc9c(c8)CN(C8CCC(=O)NC8=O)C9=O)CC7)CC6)CC5)nc4c3F)c12 (stereo not shown) [Compound 139] |
| < 100 nM | < 100 nM | < 100 nM |  |  |  |  | C#Cc1c(F)ccc2cc(O)cc(-c3nc(OC)c4c(N5CC6CCC(C5)N6C(=O)C[C@@H](C)C#N)nc(OCC5(CN6CCN(CC7CCN(c8ccc9c(c8)CN(C8CCC(=O)NC8=O)C9=O)CC7)CC6)CC5)nc4c3F)c12 (stereo partly shown) [Compound 143] |
| < 100 nM | < 100 nM | < 100 nM |  |  |  |  | C#Cc1c(F)ccc2cc(O)cc(-c3nc(OC)c4c(N5CC6CCC(C5)N6C(=O)C[C@@H](C)C#N)nc(OCC5(CN6CCN(CC7CCN(c8ccc9c(N%10CCC(=O)NC%10=O)nn(C)c9c8)CC7)CC6)CC5)nc4c3F)c12 [Compound 160] |
| < 100 nM | < 100 nM | < 100 nM |  |  |  |  | C#Cc1c(F)ccc2cc(O)cc(-c3ncc4c(N5CC6CCC(C5)N6C(=O)NC5CCC5)nc(OCC5(CN6CCN(CC7CCN(c8ccc9c(c8)CN(C8CCC(=O)NC8=O)C9=O)CC7)CC6)CC5)nc4c3F)c12 (stereo not shown) [Compound 128] |
|  |  |  | > 1000 nM | > 1000 nM | > 1000 nM |  | C#Cc1c(F)ccc2cc(O)cc(-c3ncc4c(N5CC6CCC(C5)N6C(=O)CC(C)C#N)nc(OCC5(CN6CC7CC7C6)CC5)nc4c3OCc3ccc(-c4cn([C@H](C(=O)N5C[C@H](O)C[C@H]5C(=O)N[C@@H](CO)c5ccc(-c6ccnn6CC)cc5)C(C)C)nn4)cc3)c12 (stereo partly shown) [Compound 138] |
| < 100 nM | < 100 nM | < 100 nM |  |  |  |  | C#Cc1c(F)ccc2cc(O)cc(-c3ncc4c(N5CCCOCC5)nc(OCC5(CN6CCN(CC7CCN(c8ccc9c(c8)CN(C8CCC(=O)NC8=O)C9=O)CC7)CC6)CC5)nc4c3F)c12 (stereo not shown) [Compound 134] |
|  | > 1000 nM |  |  |  |  | 100 to 1000 nM | [2H]C([2H])([2H])Oc1nc(-c2cc(O)cc3ccc(F)c(C#C)c23)c(F)c2nc(OCC3(CN4CCN(CC5CCN(c6ccc7c(c6)CN(C6CCC(=O)NC6=O)C7=O)CC5)CC4)CC3)nc(N3CC4CCC(C3)N4CC3CC3)c12 (stereo not shown) [Compound 99] |
| < 100 nM | < 100 nM | < 100 nM |  |  |  |  | C#Cc1c(F)ccc2cc(O)cc(-c3nc(OC)c4c(N5CC6CCC(C5)N6C(=O)CCC#N)nc(OCC5(CN6CCC(CN7CCC(N8Cc9cc%10c(cc9C8)C(=O)N(C8CCC(=O)NC8=O)C%10)CC7)CC6)CC5)nc4c3F)c12 (stereo not shown) [Compound 163] |
| < 100 nM | < 100 nM | < 100 nM |  |  |  |  | C#Cc1c(F)ccc2cc(O)cc(-c3ncc4c(N5CC6CCC(C5)N6C(=O)Cn5cc(COCCOCCOCCNc6ccc7c(c6)CN(C6CCC(=O)NC6=O)C7=O)nn5)nc(OCC56CCCN5C[C@@H](F)C6)nc4c3F)c12 (stereo partly shown) [Compound 141] |
| < 100 nM | < 100 nM | < 100 nM |  |  |  |  | C#Cc1c(F)ccc2cc(O)cc(-c3nc(OC)c4c(N5CC6CCC(C5)N6C(=O)CC(C)C#N)nc(OCC5(CN6CCN(C[C@H]7CCN(c8ccc9c(c8)CN(C8CCC(=O)NC8=O)C9=O)C[C@@H]7F)CC6)CC5)nc4c3F)c12 (stereo partly shown) [Compound 154] |
| < 100 nM | < 100 nM | < 100 nM |  |  |  |  | C#Cc1c(F)ccc2cc(O)cc(-c3nc(OC)c4c(N5CC6CCC(C5)N6C(=O)CC(C)C#N)nc(OCC5(CN6CCN(CC7CCN(c8cccc(NC9CCC(=O)NC9=O)c8)CC7)CC6)CC5)nc4c3F)c12 (stereo not shown) [Compound 142] |
| < 100 nM | < 100 nM | < 100 nM |  |  |  |  | C#Cc1c(F)ccc2cc(O)cc(-c3nc(OC)c4c(N5CC6CCC(C5)N6C(=O)C(C#N)CC#N)nc(OCC5(CN6CCN(CC7CCN(c8ccc9c(c8)CN(C8CCC(=O)NC8=O)C9=O)CC7)CC6)CC5)nc4c3F)c12 (stereo not shown) [Compound 126] |
| < 100 nM | < 100 nM | < 100 nM |  |  |  |  | C#Cc1c(F)ccc2cc(O)cc(-c3nc(OC)c4c(N5CC6CCC(C5)N6C(=O)CC(C)C#N)nc(OCC5CCCN(CC6CCN(c7ccc8c(c7)CN(C7CCC(=O)NC7=O)C8=O)CC6)C5)nc4c3F)c12 (stereo not shown) [Compound 146] |
|  | < 100 nM |  |  |  |  | < 100 nM | C#Cc1c(F)ccc2cc(O)cc(-c3ncc4c(N5C[C@H]6CC[C@@H](C5)N6)nc(OCC5(CN6CCC(CN7CCC(c8ccc9c(c8)CN(C8CCC(=O)NC8=O)C9=O)C(F)(F)C7)CC6)CC5)nc4c3F)c12 (stereo partly drawn) [Compound 93, 3-(5-(1-((1-((1-(((4-((1R,5S)-3,8-diazabicyclo[3.2.1]octan-3-yl)-7-(8-ethynyl-7-fluoro-3-hydroxynaphthalen-1-yl)-8-fluoropyrido[4,3-d]pyrimidin-2-yl)oxy)methyl)cyclopropyl)methyl)piperidin-4-yl)methyl)-3,3-difluoropiperidin-4-yl)-1-oxoisoindolin-2-yl) piperidine-2,6-dione] |
| < 100 nM | < 100 nM | < 100 nM |  |  |  |  | C#Cc1c(F)ccc2cc(O)cc(-c3nc(OC)c4c(N5CC6CCC(C5)N6C(=O)CC(C)C#N)nc(OCC5(CN6CCC(CN7CCC(c8ccc9c(c8)CN(C8CCC(=O)NC8=O)C9=O)C(F)(F)C7)CC6)CC5)nc4c3F)c12 (stereo not shown) [Compound 161] |
| < 100 nM | < 100 nM | < 100 nM |  |  |  |  | C#Cc1c(F)ccc2cc(O)cc(-c3nc4c5c(nc(OCC6(CN7CCN(CC8CCN(c9ccc%10c(c9)CN(C9CCC(=O)NC9=O)C%10=O)CC8)CC7)CC6)nc5c3F)N(CC(F)F)[C@@H](C)CO4)c12 (stereo partly shown) [Compound 158] |
| < 100 nM | < 100 nM | < 100 nM |  |  |  |  | C#Cc1c(F)ccc2cc(O)cc(-c3nc(OC)c4c(N5CC6CCC(C5)N6C(=O)CC(C)C#N)nc(OCC5(CN6CCN(CC7CCN(c8ccc9c(N%10CCC(=O)NC%10=O)nn(C)c9c8)CC7)CC6)CC5)nc4c3F)c12 (stereo not shown) [Compound 152] |
| < 100 nM | < 100 nM | < 100 nM |  |  |  |  | C#Cc1c(F)ccc2cc(O)cc(-c3ncc4c(N5CC6CCC(C5)N6C(=O)CC(C)C#N)nc(OCC5CCCN(CC6CCN(c7ccc8c(c7)CN(C7CCC(=O)NC7=O)C8=O)CC6)C5)nc4c3F)c12 (stereo not shown) [Compound 133] |
| < 100 nM | < 100 nM | < 100 nM |  |  |  |  | C#Cc1c(F)ccc2cc(O)cc(-c3ncc4c(N5CC6CCC(C5)N6C(=O)CC(C)C#N)nc(OCC5(CN(C)Cc6ccc(C7CN(c8ccc9c(c8)CN(C8CCC(=O)NC8=O)C9=O)C7)cc6)CC5)nc4c3F)c12 (stereo not shown) [Compound 132] |
| < 100 nM | < 100 nM | < 100 nM |  |  |  |  | C#Cc1c(F)ccc2cc(O)cc(-c3ncc4c(N5CC6CCC(C5)N6C(=O)CC(C)C#N)nc(OCC5(CN6CCN(CC7CCN(c8ccc(NC9CCC(=O)NC9=O)cc8F)CC7)CC6)CC5)nc4c3F)c12 (stereo not shown) [Compound 137] |

— patent US20260325654A1, “METHODS AND COMPOSITIONS FOR TARGETED PROTEIN DEGRADATION” (Ranok Therapeutics (Hangzhou) Co. Ltd., priority 2023, published 2026)
